Experimental data: patent publication US12152017B2, “Ketoamide compound and preparation method, pharmaceutical composition, and use thereof” (Shanghai Institute of Materia Medica, Chinese Academy of …, priority 2018, dated 2024)
Several values for one entry are separate records, joined by “and”; a condition that tells them apart may be missing. Equal values may be shown once. Read-outs that look alike come from different tables or passages of the source.

Legend:
MERS-CoV pseudovirus = assay: microbe, parasite or virus in culture; assay type: cell-based; settings: Middle East respiratory syndrome-related coronavirus, Huh-7, read-out: MERS-CoV pseudovirus inhibitory activity IC50
[1] = Pharmacokinetic study in CD-1 mice (gavage, intravenous, intraperitoneal); assay type: in vivo; settings: 20 mg/kg; for Cmax / Tmax / half-life / AUC(0-inf) / AUC(0-t) / MRT inf: male, CD-1, mouse, plasma; for AUC(0-inf): read-out: AUC INF_obs; for MRT inf: read-out: MRT INF_obs
Description: Nine CD-1 mice, male, weighing 18-22 g, were randomly divided into 3 groups with 3 mice in each group. The test compounds were administered by gavage, intravenously and intraperitoneally according to the following schemes.
Before the test, they were fasted for 12 hours and were allowed to drink water freely, and were fed uniformly 2 h after administration.
There were 3 animals at each time point.
The solution for gavage administration was formulated with DMSO/0.5% HPMC (5/95, v/v) into the final concentration. Intravenous and intraperitoneal administration were formulated with DMSO/PEG300/EtOH/NaCl (5/40/5/50, v/v/v). Retention samples of the dosing solution (50 μL of the drug solution was taken and mixed well with 50 μL of DMSO before and after the administration) for testing.
The drug was administered according to the above dosage, the time of administration were recorded, and 20 μL of blood was collected from the mouse femoral plexus at the above set time point and placed in a heparinized test tube and centrifuged immediately at 11000 rpm for 5 min. 10 μL of plasma was immediately and accurately drawn into a centrifuge tube pre-filled with 100 μL of PK-IS solution (prepared with methanol:acetonitrile (1:1, v/v)), mixed well, and frozen to store at −20° C. for testing.

[2] = i.p. (20 mg/Kg per Table 3), individual animal
[3] = ip, i.p. (20 mg/Kg per Table 3), Mean of 3 mice
[4] = ip, i.p. (20 mg/Kg per Table 3), individual animal
[5] = po, p.o. (gavage 20 mg/Kg per Table 3), Mean of 3 mice
[6] = po, p.o. (gavage 20 mg/Kg per Table 3), individual animal
[7] = p.o. (gavage 20 mg/Kg per Table 3), individual animal

## O=C(NCc1ccccc1)C(=O)[C@H](C[C@@H]1CCCNC1=O)NC(=O)[C@H](CC1CCCCC1)NC(=O)c1cc2ccccc2[nH]1 [Example A5]
MERS-CoV pseudovirus
  IC50: 0.5 ± 0.2 nM

## O=C(NCc1ccccc1)C(=O)[C@H](C[C@@H]1CCNC1=O)NC(=O)[C@H](CC1CCCCC1)NC(=O)c1cc2ccccc2o1 [Example A9, N—((S)-1-(((S)-4-(benzylamino)-3,4-dione-1-((S)-2-oxopyrrolidine-3-yl)but-2-yl)amino)-3-cyclohexyl-1-oxopropan-2-yl)-benzofuran-2-carboxamide]
[1]; [2]
  AUC INF_obs: 6825 ng·h/mL and 10574 ng·h/mL
  AUC last: 6786 ng·h/mL and 10138 ng·h/mL
  C max: 2859 ng/mL and 2364 ng/mL
  MRT INF_obs: 2.70 h and 3.19 h and 6.07 h
  T1/2: 3.67 h and 5.11 h
  T max: 0.75 h
[1]; [3]
  Cmax: 2910 ng/mL
  Tmax: 0.42 h
  half-life: 4.02 h
  AUC(0-inf): 8360 ng·h/mL
  MRT inf: 3.99 h
[1]; ip, i.p. (20 mg/Kg per Table 3), Mean of 3 mice, read-out: AUC last (exposure for intraperitoneal injection)
  AUC(0-t): 8190 ng·h/mL
[1]; [4]
  Cmax: 3520 ng/mL
  half-life: 3.28 h
  AUC(0-inf): 7670 ng·h/mL
[1]; ip, i.p. (20 mg/Kg per Table 3), individual animal, read-out: AUC last
  AUC(0-t): 7650 ng·h/mL
[1]; [5]
  Cmax: 498 ng/mL
  Tmax: 0.25 h
  half-life: 1.27 h
  AUC(0-inf): 589 ng·h/mL
  MRT inf: 1.77 h
[1]; po, p.o. (gavage 20 mg/Kg per Table 3), Mean of 3 mice, read-out: AUC last (oral exposure)
  AUC(0-t): 584 ng·h/mL
[1]; [6]
  Tmax: 0.25 h
  half-life: 1.13 h
  MRT inf: 1.35 h
[1]; [7]
  AUC INF_obs: 451 ng·h/mL and 1146 ng·h/mL and 171 ng·h/mL
  AUC last: 447 ng·h/mL and 1143 ng·h/mL and 163 ng·h/mL
  C max: 546 ng/mL and 864 ng/mL and 84 ng/mL
  MRT INF_obs: 1.33 h and 2.63 h
  T1/2: 0.91 h and 1.77 h
MERS-CoV pseudovirus
  IC50: 1 ± 0.7 nM

## O=C(NC1CCCCC1)C(=O)[C@H](C[C@@H]1CCCNC1=O)NC(=O)[C@H](CC1CCCCC1)NC(=O)c1cc2ccccc2o1 [Example A15]
MERS-CoV pseudovirus
  IC50: < 0.1 nM

## O=C(NCc1ccccc1)C(=O)[C@H](C[C@@H]1CCCNC1=O)NC(=O)[C@H](CC1CCCCC1)NC(=O)c1cc2ccccc2s1 [Example A21]
MERS-CoV pseudovirus
  IC50: 8.2 ± 3.2 nM

## Cn1c(C(=O)N[C@@H](CC2CCCCC2)C(=O)N[C@@H](C[C@@H]2CCNC2=O)C(=O)C(=O)NC(C)(C)C)cc2ccccc21 [Example A25]
MERS-CoV pseudovirus
  IC50: 407 ± 352 nM

## Cn1c(C(=O)N[C@@H](CC2CCCCC2)C(=O)N[C@@H](C[C@@H]2CCNC2=O)C(=O)C(=O)NC2CCCCC2)cc2ccccc21 [Example A26, N—((S)-3-cyclohexyl-1-(((S)-4-(cyclohexylamino)-3,4-dione-1-((S)-2-oxopyrrolidine-3-yl)but-2-yl)amino)-3-cyclohexyl-1-oxopropan-2-yl)-1-methyl-1H-indole-2-carboxamide]
MERS-CoV pseudovirus
  IC50: 7.8 ± 3.5 nM

## Cn1c(C(=O)N[C@@H](CC2CCCCC2)C(=O)N[C@@H](C[C@@H]2CCCNC2=O)C(=O)C(=O)NCc2ccccc2)cc2ccccc21 [Example A27]
MERS-CoV pseudovirus
  IC50: 8 ± 4 nM

## CC(C)(C)NC(=O)C(=O)[C@H](C[C@@H]1CCNC1=O)NC(=O)[C@H](CC1CCCCC1)NC(=O)c1ccc2ccccc2n1 [Example A43]
MERS-CoV pseudovirus
  IC50: 786 ± 458 nM

## O=C(NC1CCCCC1)C(=O)[C@H](C[C@@H]1CCNC1=O)NC(=O)[C@H](CC1CCCCC1)NC(=O)c1ccc2ccccc2n1 [Example A44, N—((S)-3-cyclohexyl-1-(((S)-4-(cyclohexylamino)-3,4-dione-1-((S)-2-oxopyrrolidine-3-yl)but-2-yl)amino)-3-cyclohexyl-1-oxopropan-2-yl)-quinoline-2-carboxamide]
MERS-CoV pseudovirus
  IC50: 18 ± 5.6 nM

## O=C(NCc1ccccc1)C(=O)[C@H](C[C@@H]1CCCNC1=O)NC(=O)[C@H](Cc1ccccc1)NC(=O)c1cc2ccccc2[nH]1 [Example A51, N—((S)-1-(((S)-4-(benzylamino)-3,4-dione-1-((S)-2-oxopiperidine-3-yl)but-2-yl)amino)-1-oxo-3-phenylpropan-2-yl)-1H-indole-2-carboxamide]
MERS-CoV pseudovirus
  IC50: < 0.1 nM

## O=C(NCc1ccccc1)C(=O)[C@H](C[C@@H]1CCCNC1=O)NC(=O)[C@H](Cc1ccccc1)NC(=O)c1cnc2ccccc2n1 [Example A81, N—((S)-1-(((S)-4-(benzylamino)-3,4-dione-1-((S)-2-oxopiperidine-3-yl)but-2-yl)amino)-1-oxo-3-phenylpropan-2-yl)-quinoxaline-2-carboxamide]
MERS-CoV pseudovirus
  IC50: 0.2 ± 0.1 nM

## CC(C)NC(=O)CC[C@H](NC(=O)[C@H](CC1CCCCC1)NC(=O)c1cc2ccccc2[nH]1)C(=O)C(=O)NCc1ccccc1 [Example A232, N—((S)-1-(((S)-4-(benzyl)-3,4-dione-1-(isopropylamino)-2-yl)amino)-3-(cyclohexyl)-1-oxopropan-2-yl)-1H-indole-2-carboxamide]
MERS-CoV pseudovirus
  IC50: 13.4 ± 3 nM

## CC(C)NC(=O)CC[C@H](NC(=O)[C@H](CC1CCCCC1)NC(=O)c1cnc2ccccc2n1)C(=O)C(=O)NCc1ccccc1 [Example A236, N—((S)-1-(((S)-4-(benzyl)-3,4-dione-1-(isopropylamino)-2-yl)amino)-3-(cyclohexyl)-1-oxopropan-2-yl)-quinoxaline-2-carboxamide]
MERS-CoV pseudovirus
  IC50: 16.6 ± 4 nM

## O=C(NCc1ccccc1)C(=O)[C@H](C[C@@H]1CCCNC1=O)NC(=O)[C@H](CC1CCCCC1)NC(=O)c1cc2ccc(F)cc2[nH]1 [Example A240]
MERS-CoV pseudovirus
  IC50: 15.9 ± 7 nM

## O=C(NCc1ccccc1)C(=O)[C@H](C[C@@H]1CCCNC1=O)NC(=O)C(CC1CCCCC1)NC(=O)c1ccc2c(c1)OCO2 (stereo partly shown) [Example A243]
MERS-CoV pseudovirus
  IC50: 10.7 ± 0.8 nM

## O=C(NCc1ccccc1)C(=O)[C@H](C[C@@H]1CCCNC1=O)NC(=O)C(CC1CCCCC1)NC(=O)c1nc2ccccc2[nH]1 (stereo partly shown) [Example A244]
MERS-CoV pseudovirus
  IC50: 12.6 ± 12.2 nM

## COc1cccc2cc(C(=O)NC(CC3CCCCC3)C(=O)N[C@@H](C[C@@H]3CCCNC3=O)C(=O)C(=O)NCc3ccccc3)oc12 (stereo partly shown) [Example A245]
MERS-CoV pseudovirus
  IC50: 18.4 ± 8 nM

## Cc1c(C(=O)NC(CC2CCCCC2)C(=O)N[C@@H](C[C@@H]2CCCNC2=O)C(=O)C(=O)NCc2ccccc2)oc2ccccc12 (stereo partly shown) [Example A246]
MERS-CoV pseudovirus
  IC50: 10.8 ± 10 nM

## Cc1ccc2oc(C(=O)NC(CC3CCCCC3)C(=O)N[C@@H](C[C@@H]3CCCNC3=O)C(=O)C(=O)NCc3ccccc3)c(C)c2c1 (stereo partly shown) [Example A247]
MERS-CoV pseudovirus
  IC50: 1.7 ± 0.4 nM

## COc1ccc(OC)c2oc(C(=O)NC(CC3CCCCC3)C(=O)N[C@@H](C[C@@H]3CCCNC3=O)C(=O)C(=O)NCc3ccccc3)cc12 (stereo partly shown) [Example A248]
MERS-CoV pseudovirus
  IC50: 8.4 ± 1.7 nM

## O=C(NCc1ccccc1)C(=O)[C@H](C[C@@H]1CCCNC1=O)NC(=O)C(CC1CCCCC1)NC(=O)c1coc2ccccc12 (stereo partly shown) [Example A249]
MERS-CoV pseudovirus
  IC50: 0.6 ± 0.2 nM

## O=C(NCc1ccccc1)C(=O)[C@H](C[C@@H]1CCCNC1=O)NC(=O)C(CC1CCCCC1)NC(=O)C1=Cc2cc(Cl)ccc2OC1 (stereo partly shown) [Example A250]
MERS-CoV pseudovirus
  IC50: 0.7 ± 0.1 nM
